In ChEMBL document CHEMBL3507680, “University of Dundee, Gates Library screen for HepG2 cell viability” one finds cytotoxicity data, which are given here for 91 compounds.

Each structure is given as a SMILES string.

The data set in a line: Human HepG2 cell viability assay in 384 well format. In kind it is toxicity, cell-based. Details: dose 125 nL, time 70.5 hour; concentration not given beside the values. To be noted: HepG2 cells, read-out: Inhibition.
`c1cncc(COCC2CNCc3nccn3C2)c1` (stereo unspecified): the cytotoxicity at 70.5 h was found to be 3.07%.

In the case of `CC(C)(CO)CNC(=O)c1ccnn1-c1ccc2ccccn12`, the cytotoxicity at 70.5 h was -2.1%. As to `COCCCN1CC2(CCCCN2C(C)=O)CC1=O` (stereo unspecified), the cytotoxicity at 70.5 h was -7.86%.

Regarding `O=C(CCO)N1CCC2(CCc3ccc(-c4ccoc4)cc32)CC1`, the cytotoxicity at 70.5 h was -12.5%. With `COc1ncccc1CN1CC[C@H]2O[C@H](c3nnc(C)o3)CC[C@H]21`, the cytotoxicity at 70.5 h is -11.5%. With `CN(C)c1ccc2c(c1)CN(C(=O)c1cnccn1)C2c1cnco1` (stereo unspecified), the cytotoxicity at 70.5 h is 22.8%.

Take `CC1N(CC2CC2)C(=O)COC12CCN(C(=O)c1cccs1)CC2` (stereo unspecified): the cytotoxicity at 70.5 h is -5.2%. Regarding `CN(C)c1ccc2c(c1)CN(C(=O)c1c[nH]cn1)C2c1cnco1` (stereo unspecified), the cytotoxicity at 70.5 h is 29.3%. To `CC1N(CC2CC2)C(=O)COC12CCN(C(=O)c1ccncc1)CC2` (stereo unspecified) belongs -1.87%; to `CN(C)C[C@H]1C[C@@H]2CN(C(=O)c3ccco3)C[C@@H]2O1`, -2.65%. To `c1cnc(NCc2n[nH]c3c2CCN(Cc2ccncc2)C3)nc1` belongs -6.35%; to `CCN1CC2(CC1=O)CN(C(=O)NC)CCN(S(C)(=O)=O)C2` (stereo unspecified), -6.12%; to `Cc1cnc(CNC(=O)C[C@@H]2COC[C@H]3CN(C4CCC4)C[C@@H]23)cn1`, 25.6%.

For `CN(C)CCN1C[C@@H]2CN(C(=O)C3CC=CC3)C[C@@H]2C1=O`, the cytotoxicity at 70.5 h is -10.8%. In the case of `CN(C)CC(=O)N1Cc2cc(N(C)C)ccc2C1c1cnco1` (stereo unspecified), the cytotoxicity at 70.5 h was -12.7%. `COCC(=O)N1CCC2(CC1)CCn1c(-c3cccc(OC)c3)cnc12`: the cytotoxicity at 70.5 h worked out at 36.2%.

For the compound `CC(C)NC(=O)N1CCC2(CC1)CCn1c(C3CC3)cnc12`, the cytotoxicity at 70.5 h was 51.2%. For `CC(C)Nc1nc2c(c(NC3CC3)n1)CN(C(=O)Cc1ccsc1)CC2`, the cytotoxicity at 70.5 h is 3.26%. To `Cc1cnc(N2CCC3(CC2)C(c2ccccc2)CC(=O)N3C)nc1` (stereo unspecified) belongs -10.2%. As for `CN(C)C(=O)N1CC2(CCOCC2)c2cc(NS(=O)(=O)C3CC3)ccc21`, the cytotoxicity at 70.5 h is 11.5%. The value for `O=C(Nc1cnccn1)[C@H]1COC[C@H]2CN(c3ncc(F)cn3)C[C@H]21` was -5.25%.

Consider `CNC(=O)N1CCC2(CC1)CN(C)c1ccc(F)cc12`, for which the cytotoxicity at 70.5 h worked out at 2.16%.

As for `CC(C)Nc1nc2c(c(NC3CC3)n1)CN(C(=O)c1ccsc1)CC2`, the cytotoxicity at 70.5 h was -17.2%. To `c1cnc(N2CC3(CCN(C4CCOC4)CC3)c3ccccc32)nc1` (stereo unspecified) belongs -6.16%; to `COc1cccc(CNC(=O)c2nc3c(o2)CN(C(=O)N(C)C)C3)c1`, -8.42%. Regarding `Cc1ccc(CN2C[C@H]3C[C@H](C(=O)NCc4cccnc4)[C@@H](C2)O3)cc1`, the cytotoxicity at 70.5 h came out at 37.6%.

`O=C(C1CC1)N1CCC2(CC1)CNCCO2`: the cytotoxicity at 70.5 h worked out at 4.17%.

As to `CC(C)N(C)C(=O)C1=NOC2(CCN(C(=O)c3cccn3C)C2)C1` (stereo unspecified), the cytotoxicity at 70.5 h is 24.9%. Consider `CC(C)N(C)C(=O)C1=NOC2(CCN(C(=O)c3ccnnc3)C2)C1` (stereo unspecified), for which the cytotoxicity at 70.5 h is -1.5%.

Turning to `CCOCC(=O)N1Cc2nccn2CC(CN(C)C)C1` (stereo unspecified), the cytotoxicity at 70.5 h amounted to 1.2%. As for `Cc1noc([C@@H]2C[C@H]3OCC[C@H]3N(S(=O)(=O)N(C)C)C2)n1`, the cytotoxicity at 70.5 h is -0.423%. `Cc1ccc(N2CCOCC3(CCCN(c4ncc(F)cn4)C3)C2)nn1` (stereo unspecified): the cytotoxicity at 70.5 h was -3.89%. On to `Cc1cnc(N2CCCC3(COCCN(c4ccc(C)nn4)C3)C2)nc1` (stereo unspecified), for which the cytotoxicity at 70.5 h was -2.56%. For the compound `CN(C)c1nccc(N2CCO[C@H]3CN(Cc4ccco4)C[C@H]32)n1`, the cytotoxicity at 70.5 h was 3.82%. For `O=c1cc(CN2CCCC2)nc2n1CCCN(Cc1ccoc1)C2`, the cytotoxicity at 70.5 h turned out to be 1.82%. As for `Cc1noc([C@@H]2C[C@H]3OCC[C@H]3N(S(=O)(=O)c3ccccc3)C2)n1`, the cytotoxicity at 70.5 h is -1.71%.

In the case of `CN1C(=O)CC[C@@H]2[C@H]1CCN2S(=O)(=O)Cc1ccccc1`, the cytotoxicity at 70.5 h was 47.7%. Take `CS(=O)(=O)N1CC[C@@H]2O[C@@H](COCC(=O)N3CCCC3)CC[C@@H]21`: the cytotoxicity at 70.5 h turned out to be 22.1%. Take `COc1cc(N2C[C@H](C(=O)NC3CC3)[C@@H]3CCO[C@@H]3C2)ncn1`: the cytotoxicity at 70.5 h was -7.61%. As for `Cn1cc(CN2CCC3(CCCN(C(=O)c4cscn4)C3)C2)cn1` (stereo unspecified), the cytotoxicity at 70.5 h was -3.85%.

Regarding `COCCN1C(=O)C[C@H]2[C@H]1CCN2C(=O)c1ccc[nH]1`, the cytotoxicity at 70.5 h was -10.2%.

For `Cc1nc(CO[C@@H]2CN(Cc3ccco3)[C@@H]3COC[C@@H]32)cs1`, the cytotoxicity at 70.5 h was -14.3%. For `Cn1ncc2c1C(COCC1CC1)CN(Cc1ccncc1)C2` (stereo unspecified), the cytotoxicity at 70.5 h is -8.73%. As for `CNC(=O)N1Cc2cc(F)ccc2C2(CCN(C)CC2)C1`, the cytotoxicity at 70.5 h is -1.35%. Consider `CNC(=O)N1CCC2(CC1)CN(C)Cc1cc(F)ccc12`, for which the cytotoxicity at 70.5 h is 2.33%. To `CC(=O)N1CCc2cc(C(=O)O)c(-c3ccsc3)nc2CC1` belongs -0.0308%. Regarding `Cc1nnc([C@@H]2C[C@H]3CN(C4CCC4)C[C@H]3O2)[nH]1`, the cytotoxicity at 70.5 h is -0.989%. `Cc1nnc([C@@H]2C[C@H]3CN(C(=O)c4c(C)noc4C)C[C@H]3O2)[nH]1`: the cytotoxicity at 70.5 h was -11.6%. With `Cc1cccc(CN2CCc3[nH]nc(C(=O)N4CCNC(=O)C4)c3C2)n1`, the cytotoxicity at 70.5 h is -10.5%.

Consider `Cc1ccc(N2C[C@@H]3CN(C(=O)c4ccccc4)CCO[C@@H]3C2)nn1`, for which the cytotoxicity at 70.5 h worked out at 23.3%. With `CN(C)CCN1C[C@@H]2CN(C(=O)C3CCOC3)C[C@@H]2C1=O` (stereo partly specified), the cytotoxicity at 70.5 h is 23.4%.

On to `CC(C)N1CCOCC2(CCCN(C(=O)c3cncn3C)C2)C1` (stereo unspecified), for which the cytotoxicity at 70.5 h was -8.05%. On to `O=C1CC[C@H]2[C@H](CCN2c2ccccn2)N1CC1CCOCC1`, for which the cytotoxicity at 70.5 h was -9.84%. As to `O[C@@H]1CCN(CC2CCOC2)[C@H]1Cc1ccccc1` (stereo partly specified), the cytotoxicity at 70.5 h is -3.68%. In the case of `CN(C)C(=O)COC[C@@]12CCC[C@@H]1CN(C1CCCC1)C2`, the cytotoxicity at 70.5 h was -1.63%. Regarding `CC(C)n1nc(Cn2cccc2)c2c1CN(Cc1ccoc1)C2`, the cytotoxicity at 70.5 h was -4.83%. Take `Cc1ccc(N2CC[C@H]3[C@@H]2CCC(=O)N3CCN2CCOCC2)nn1`: the cytotoxicity at 70.5 h was -6.53%. To `CN(C)CCOC1CC2(CCN(c3cnccn3)CC2)c2ccccc21` (stereo unspecified) belongs 31.5%; to `Cc1nc(COCc2nc3c(o2)CN(C(=O)c2ccc[nH]2)C3)cs1`, -3.29%; to `c1ccc(OCc2nnn3c2CN(c2ncccn2)CCC3)nc1`, 6.14%. Take `CCN(CC)c1ccc2ccc(C(=O)N(CCOC)CCOC)cn12`: the cytotoxicity at 70.5 h is -0.14%. For the compound `CN(C)CC1CN(C(=O)Cc2ccccc2)Cc2nccn2C1` (stereo unspecified), the cytotoxicity at 70.5 h worked out at 24%. On to `O=C(C[C@@H]1COC[C@H]2CN(C(=O)c3cccnc3)C[C@@H]12)N1CCOCC1`, for which the cytotoxicity at 70.5 h was -4.26%. Regarding `O=C1COC2(CCN(Cc3cccs3)CC2)CN1c1cncnc1`, the cytotoxicity at 70.5 h was determined as 0.999%.

Turning to `Cc1ccc(N2CCCC3(COCCN(c4ccccn4)C3)C2)nn1` (stereo unspecified), the cytotoxicity at 70.5 h was -8.01%.

Regarding `COCC(=O)N1CCCn2c(CN3CCOCC3)nnc2C1`, the cytotoxicity at 70.5 h amounted to 2.56%.

For the compound `N#Cc1cccc(CN2Cc3nccn3CC(COCC3CC3)C2)c1` (stereo unspecified), the cytotoxicity at 70.5 h amounted to 8.65%.

As to `CC(C)N(C)Cc1cn2c(n1)CN(C(=O)Cc1ccccc1)CC2`, the cytotoxicity at 70.5 h was -2.24%. To `c1ccc(N2CCC3(CCCN(c4ncccn4)C3)C2)nc1` (stereo unspecified) belongs 2.93%; to `Cc1ccc(C(=O)N2CCC3(CCN3c3ncccn3)C2)cn1` (stereo unspecified), -1.31%; to `O=C(C[C@@H]1COC[C@H]2CN(C(=O)c3cccnc3)C[C@@H]12)N1CCCC1`, 1.64%. Take `CC1N(C)C(=O)COC12CCN(Cc1nccs1)CC2` (stereo unspecified): the cytotoxicity at 70.5 h is -9.04%. As for `Cn1cccc1C(=O)N1C[C@@H]2C[C@@H](c3nc(C4CC4)cs3)O[C@@H]2C1`, the cytotoxicity at 70.5 h is 4.85%. As for `O=C(c1cscn1)N1CCC2(CN(Cc3ccsc3)C2)C1`, the cytotoxicity at 70.5 h is 31.3%.

As for `Cn1cc(CN2C[C@H]3CCN(C(=O)c4cscn4)C[C@H]3C2)cn1`, the cytotoxicity at 70.5 h worked out at 27.4%.

`Cc1nnc([C@H]2C[C@@H]3CCN(Cc4ccc(C)o4)C[C@H]3O2)[nH]1`: the cytotoxicity at 70.5 h is -7.28%.

With `Cc1ccc(CN2CCc3c(COC(C)C)nn(C)c3C2)s1`, the cytotoxicity at 70.5 h was -9.08%. Consider `Cn1cc(CN2CCC3(CC2)CCN(C(=O)c2cscn2)CC3)cn1`, for which the cytotoxicity at 70.5 h is -1.71%. `COCc1nn(C(C)C)c2c1CCN(Cc1ccc(C)o1)C2`: the cytotoxicity at 70.5 h was -4.09%. As for `O=C(COCC1CC[C@H]2[C@H](CCN2c2ncccn2)O1)N1CCCC1` (stereo partly specified), the cytotoxicity at 70.5 h is -6%. `COCCNC(=O)[C@H]1CN(Cc2sccc2C)C[C@H]2OCC[C@@H]12`: the cytotoxicity at 70.5 h was 7.63%. For `CN(Cc1ccco1)Cc1cnc2n1CCN(c1ccccn1)CC2`, the cytotoxicity at 70.5 h is -2.44%. On to `CN1CCOCC2(CCN(Cc3ccc[nH]3)CC2)C1`, for which the cytotoxicity at 70.5 h is 30%. To `O=C(C[C@@H]1COC[C@H]2CN(Cc3cccnc3)C[C@@H]12)N1CCCC1` belongs -4.76%; to `O=C1COC2(CCN(Cc3ccncc3)CC2)CN1c1ccccc1`, 2.43%; to `Cn1ncc2c1CN(Cc1ccc(F)cc1)CC2COCC1CC1` (stereo unspecified), 31.5%.

With `Cn1ncc2c1CN(Cc1ccccc1F)CC2COCC1CC1` (stereo unspecified), the cytotoxicity at 70.5 h was found to be 23.7%.

With `COCCN1C[C@H](OCc2csc(C)n2)[C@H]2COC[C@H]21`, the cytotoxicity at 70.5 h was -9.78%. Regarding `CN(C)C(=O)c1nn(C)c2c1CN(Cc1cccs1)C2`, the cytotoxicity at 70.5 h is -9.29%. The value for `CC(C)N(C)[C@@H]1CCN(Cc2nccs2)[C@H]1Cc1ccncc1` was -8.84%; that for `CN(C)CCN1CCOCC2(CCN(Cc3ccc[nH]3)CC2)C1` was 0.665%.
